In BindingDB's records for doi:10.1128/aac.40.5.1304 (Merck Research Laboratories, 1996):

Target: Polymerase acidic protein (Influenza A virus (strain A/Puerto Rico/8/1934 H1N1), UniProt P03433)
Test: Inhibition of Influenza replication

Row | Structure (SMILES) | IC50 [nM]
1 | O=C(O)C(=O)CC(=O)C1(Cc2ccc(Cl)cc2)CCN(Cc2ccc(Cl)cc2)CC1 | 180
2 | O=C(O)C(=O)CC(=O)C1(Cc2ccc(Cl)cc2)CCCN(Cc2ccccc2)C1 (configuration not stated) | 1600
